The nature of data set [1]: Cytotoxicity against BALB/c mouse splenocytes incubated for 48 hrs by MTT assay. Type of data set: toxicity, cell-based, Splenocyte. In general terms: Tetrazolium assays rely on reduction of a dye to a coloured formazan, in cell work by metabolically active cells.
Data set [2] has as its system Splenocyte. As to the kind of experiment: Immunosuppressive activity in BALB/c mouse splenocytes assessed as inhibition of ConA-induced T cell proliferation by measuring [3H]-thymidine uptake by beta scintillation counter analysis. Type of data set: functional, cell-based.
Data set [3] in a line: Selectivity index, ratio of CC50 for cytotoxicity against BALB/c mouse splenocyte to IC50 for immunosuppressive activity in BALB/c mouse splenocytes assessed as inhibition of LPS-induced B cell proliferation. Type of data set: cell-based. To be noted: read-out: Ratio CC50/IC50.
Data set [4] has as its system Splenocyte. Put plainly: Immunosuppressive activity in BALB/c mouse splenocytes assessed as inhibition of LPS-induced B cell proliferation by measuring [3H]-thymidine uptake by beta scintillation counter analysis. The format is functional, cell-based.
Data set [5] can be described thus: Selectivity index, ratio of CC50 for cytotoxicity against BALB/c mouse splenocyte to IC50 for immunosuppressive activity in BALB/c mouse splenocytes assessed as inhibition of ConA-induced T cell proliferation. Type of data set: cell-based. Particulars: read-out: Ratio CC50/IC50.

One may read the CC50 as the concentration at which the toxic effect on the cells reaches its halfway point. A high value points to lower toxicity to the cells. As usually defined, the IC50 is the concentration that inhibits the measured activity by half.

`OC[C@H](Cc1cc2c(cc1O)OCO2)[C@](O)(CO)Cc1cc2c(cc1O)OCO2` yielded a half-maximal cytotoxic concentration (CC50) at 48 h in data set [1] of 108 µM. For the same compound, the IC50 in the data set on Splenocyte [2] came out at 56.2 µM; in the data set on Splenocyte [4], 26.7 µM. Besides, the selectivity ratio in data set [3] turned out to be 4.1; in data set [5], 1.9.
In data set [1], `O=C(Cc1ccc2c(c1)OCO2)[C@H](CO)Cc1ccc2c(c1)OCO2` had a cytotoxic concentration (CC50) at 48 h of 68 µM. Moreover, the IC50 in the data set on Splenocyte [2] amounted to 18 µM; with Splenocyte [4] it was 3.9 µM. In addition, the selectivity ratio is 17.5 in data set [3] and 3.8 in data set [5].
The corresponding values for `COc1cc2c(cc1O)O[C@H]1OC[C@H](Cc3cc4c(cc3O)OCO4)[C@H]1C2` are 82.5 µM, 14.8 µM, 12.1 µM, 6.8 and 5.6.
Regarding `Oc1cc2c(cc1C[C@H]1CO[C@@H]3Oc4cc5c(cc4C[C@H]13)OCO5)OCO2`, the CC50 at 48 h in data set [1] stood at 90.3 µM. Besides, the IC50 was determined as 51.7 µM in the data set with Splenocyte [2] and 32.8 µM in the data set with Splenocyte [4]. Also, the results for the selectivity ratio in data set [3] and in data set [5] were 2.8 and 1.7, respectively.
With `COc1cc(C[C@H]2CO[C@@H]3Oc4cc5c(cc4C[C@H]23)OCO5)ccc1O`, half-maximal cytotoxicity in data set [1] (CC50 at 48 h) was put at 40.1 µM. For the same compound, the IC50 in the data set on Splenocyte [2] was 10.1 µM; in the data set with Splenocyte [4], 2.7 µM. In addition, the figures for the selectivity ratio in data set [3] and in data set [5] were 14.9 and 4, respectively.
Take `OC[C@H](Cc1ccc2c(c1)OCO2)[C@](O)(CO)Cc1cc2c(cc1O)OCO2`: in data set [1], the CC50 at 48 h worked out at 99.3 µM. Further, the 50% inhibitory concentration (IC50) with Splenocyte [2] turned out to be 27.3 µM; with Splenocyte [4], 18.2 µM. Also, in data set [5], the selectivity ratio turned out to be 3.6.

The values are drawn from ChEMBL document CHEMBL5321255, “Sumatranins A-J: Lignans with Immunosuppressive Activity from Cleistanthus sumatranus” (J Nat Prod, 2023).
